Read-outs that look alike come from different tables or passages of the source.
What was measured:
[1] = In vitro microsomal stability, rat; type: in vitro ADME; conditions: pH 7.4; rat liver microsomes; read-out: rat LM CLint
Procedure: (§1) Compounds (final concentration = 1 µM; final DMSO concentration = 0.1%) were incubated in 0.1 M phosphate buffer at pH 7.4 with liver microsomes (human, mouse, rat or dog; 0.5 mg of protein/mL) at 37 °C. Reactions were started by addition of NADPH in 0.1 M phosphate buffer pH 7.4 (final concentration 1 mM). Reactions were quenched by addition of ice-cold methanol and frozen. The supernatants were analysed by LC/MS/MS on a Waters Acquity I-Class coupled to a Waters Xevo TQD mass spectrometer. A Waters BEH C18 2.1 × 50 mm 1.7 µm column was used and mobile phases consisted of water and methanol containing 0.1% formic acid as modifier. Analysis was by multiple reaction monitoring and conditions were optimised for each test compound.

[2] = test system: pAKT in MCF-7 cells; test: Western blot of pAKT and pGSK3β in MCF-7 cells; type: cell-based; conditions: 1 µM, observed from 1 h after treatment
Procedure: AKT inhibitor treated cell lysates were obtained using RIPA lysis buffer supplemented with protease and phosphatase inhibitor tablets (Roche). Protein samples (30 µg/lane) were run by SDS-PAGE and transferred to Hybond C extra nitrocellulose membranes (Amersham Biosciences) before incubation with the following primary antibodies; pAKT, total AKT, pGSK3β, total GSK3 β, p(Cell Signaling Technologies), Actin (Sigma) or Vinculin (Santa Cruz). Primary antibodies were diluted at 1:1000 (except Actin which was diluted 1:5000). Secondary antibodies were diluted 1:10,000. Blots were visualised using Amersham ECL plus western blot detection system (GE Healthcare) or Odyssey CLx system (LI-COR).

[3] = target: T1, AKT2 (Homo sapiens, UniProt P31751); test: SelectScreen kinase selectivity profiling, AKT2; type: biochemical; conditions: read-out: % inhibition @ 10 µM, AKT2; 10 µM fixed concentration
T1 construct: purchased Signal Chem
Procedure: (§2) Off-target kinase activity was performed using the SelectScreen kinase profiling service against either mini 50 kinase or full 450 kinase panels using the Z’lyte and Adapta kinase activity platforms (performed by Thermofisher).

[4] = test system: MCF-7 cells; test: Clonogenic cell survival assay; type: cell-based; conditions: Homo sapiens, MCF7; MCF-7, concentration range 0.001–10 µM
[5] = target: PDK1 (Homo sapiens, UniProt O15530); test: SelectScreen kinase selectivity profiling, PDK1; type: biochemical
Procedure: as §2

[6] = target: T2, AKT1 (Homo sapiens, UniProt P31749); test: AKT1 biochemical kinase assay (FP iMAP)
T2 construct: purchased Millipore
Procedure: Biochemical analysis was performed using kinases obtained from Millipore (AKT1, ∆AKT1, ∆AKT2, ∆AKT3) and Signal Chem (AKT2 and AKT3). […] (Molecular Devices) against the three isoforms of AKT and their PH domain null mutants. Compounds were dissolved in DMSO prior to screening at 14 point titration series in the range (50 µM–50 pM). Fluorescence polarisation was measured using a Biotek Synergy 4 Hybrid microplate reader. Percentage inhibition of kinase activity was calculated and IC50 values derived using non-linear regression on GraphPad Prism. Competition of ALM301 with ATP was determined using AKT1 under increasing ATP concentrations up to 1000 µM.

[7] = test system: ∆AKT3; test: PH domain null AKT3 biochemical kinase assay (FP iMAP)
Procedure: (§3) Biochemical analysis was performed using kinases obtained from Millipore (AKT1, ∆AKT1, ∆AKT2, ∆AKT3) and Signal Chem (AKT2 and AKT3). The specific activity of AKT 1,2 and 3 was determined to be 114 nmol/min/mg, 44 nmol/min/mg and 200 nmol/min/mg respectively as per activity assay protocol. ALM301 was profiled using the Fluorescent Polarisation (FP) iMAP Screening Express kit (Molecular Devices) using the FAM-Crosstide substrate [5FAM-[…]-OH] (Molecular Devices) against the three isoforms of AKT and their PH domain null mutants. Compounds were dissolved in DMSO prior to screening at 14 point titration series in the range (50 µM–50 pM). Fluorescence polarisation was measured using a Biotek Synergy 4 Hybrid microplate reader. Percentage inhibition of kinase activity was calculated and IC50 values derived using non-linear regression on GraphPad Prism. Competition of ALM301 with ATP was determined using AKT1 under increasing ATP concentrations up to 1000 µM.

[8] = test system: MCF-7 cells; test: In vitro Incucyte live cell imaging proliferation assay; type: cell-based; conditions: MCF-7, 5 µM, 7d time course
Procedure: MCF-7 cells were obtained from American Type Culture Collection (ATCC). […] Cell confluency was measured over time using an Incucyte Zoom S3 using the basic analyser processing analysing tool. Percentage confluence values were calculated and IC50 values were derived as previously stated.

[9] = test system: MCF-7 cells; test: In vitro proliferation assay (CellTiter-Glo), MCF-7; type: cell-based; conditions: Homo sapiens, MCF7; MCF-7 cells (PI3KCA mutation), 72 h; read-out: anti-proliferative IC50, MCF-7
Procedure: MCF-7, T47D, NCI-H460, HCT116, LNCaP, A431, PC3, PANC-1, A549, HT29M, SKOV-3, Du145, HMEC-1, Hs888Lu, Hela, MDA-MB-231 and SW480 cells were obtained from American Type Culture Collection (ATCC). A2780, PNT2, U251MG, HFFF2 and Fr2 cells were obtained from Public Health England European Collection of Authenticated Cell Cultures (Phe ECACC). InMyoFib and NHLF cells were acquired from Lonza. Cells were then incubated with increasing concentration of inhibitor (1 nM to 100 µM) for 72 h at 37 °C. Cell viability was determined using the CellTiter-Glo Luminescent Cell Viability Assay (Promega). IC50 values were derived as previously stated.

[10] = test system: pGSK3β in PC3 prostate cancer cells; test: pGSK3β ELISA in PC3 cells; type: cell-based; conditions: Homo sapiens, PC-3; PC3 cells, 24 h
Procedure: (§4) Cells were then washed with PBS and lysed. The subsequent supernatant was assayed using a GSK3β (pS9) (Invitrogen, Life Technologies) ELISA. Phospho-AKT levels were detected using the phospho-AKT (S473) immunoassay (R&D Systems) as per manufacturer’s protocol. Percentage inhibition of phosphorylation status was calculated by comparing phospho-AKT levels to total AKT levels with each treatment and IC50 values derived using non-linear regression on GraphPad Prism.

[11] = In vitro microsomal stability, mouse; type: in vitro ADME; conditions: pH 7.4; mouse liver microsomes; read-out: mouse LM CLint
Procedure: as §1

[12] = test system: ∆AKT1; test: PH domain null AKT1 biochemical kinase assay (FP iMAP)
Procedure: as §3

[13] = test system: pAKT (Ser473) in MCF-7 cells; test: phospho-AKT (S473) ELISA in MCF-7 cells; type: cell-based; conditions: Homo sapiens, MCF7, 24h treatment, read-out: EC50 inhibition of phosphorylation of AKT
Procedure: as §4

T2 sequence (P31749 whole entry): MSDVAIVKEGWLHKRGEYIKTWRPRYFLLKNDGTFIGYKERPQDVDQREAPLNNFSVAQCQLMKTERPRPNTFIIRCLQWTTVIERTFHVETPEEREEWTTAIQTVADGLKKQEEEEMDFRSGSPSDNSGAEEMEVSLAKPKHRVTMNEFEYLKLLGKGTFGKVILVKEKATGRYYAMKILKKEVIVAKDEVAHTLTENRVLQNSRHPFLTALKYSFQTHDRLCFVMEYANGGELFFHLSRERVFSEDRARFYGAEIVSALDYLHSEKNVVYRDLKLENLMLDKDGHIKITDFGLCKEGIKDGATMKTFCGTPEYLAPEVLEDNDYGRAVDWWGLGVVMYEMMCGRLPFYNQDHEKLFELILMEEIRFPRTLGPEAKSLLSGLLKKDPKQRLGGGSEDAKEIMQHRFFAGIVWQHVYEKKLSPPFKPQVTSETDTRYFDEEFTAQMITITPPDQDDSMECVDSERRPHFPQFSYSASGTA
Sequence of PDK1 (O15530 whole entry): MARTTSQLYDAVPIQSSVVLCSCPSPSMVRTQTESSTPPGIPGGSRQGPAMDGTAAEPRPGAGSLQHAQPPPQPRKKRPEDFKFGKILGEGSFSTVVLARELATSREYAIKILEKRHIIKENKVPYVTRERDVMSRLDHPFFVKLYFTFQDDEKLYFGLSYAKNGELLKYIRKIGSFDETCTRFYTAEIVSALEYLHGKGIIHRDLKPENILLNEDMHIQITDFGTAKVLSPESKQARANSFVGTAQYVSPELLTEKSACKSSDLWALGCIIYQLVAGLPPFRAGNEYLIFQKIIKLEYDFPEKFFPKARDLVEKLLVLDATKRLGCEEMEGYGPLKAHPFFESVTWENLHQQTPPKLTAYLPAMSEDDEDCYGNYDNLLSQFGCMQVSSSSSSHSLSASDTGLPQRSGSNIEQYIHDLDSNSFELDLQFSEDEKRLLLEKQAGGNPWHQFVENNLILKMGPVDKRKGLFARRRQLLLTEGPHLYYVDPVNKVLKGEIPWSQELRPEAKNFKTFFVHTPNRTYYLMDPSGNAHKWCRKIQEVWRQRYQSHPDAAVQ
T1 sequence (P31751 whole entry): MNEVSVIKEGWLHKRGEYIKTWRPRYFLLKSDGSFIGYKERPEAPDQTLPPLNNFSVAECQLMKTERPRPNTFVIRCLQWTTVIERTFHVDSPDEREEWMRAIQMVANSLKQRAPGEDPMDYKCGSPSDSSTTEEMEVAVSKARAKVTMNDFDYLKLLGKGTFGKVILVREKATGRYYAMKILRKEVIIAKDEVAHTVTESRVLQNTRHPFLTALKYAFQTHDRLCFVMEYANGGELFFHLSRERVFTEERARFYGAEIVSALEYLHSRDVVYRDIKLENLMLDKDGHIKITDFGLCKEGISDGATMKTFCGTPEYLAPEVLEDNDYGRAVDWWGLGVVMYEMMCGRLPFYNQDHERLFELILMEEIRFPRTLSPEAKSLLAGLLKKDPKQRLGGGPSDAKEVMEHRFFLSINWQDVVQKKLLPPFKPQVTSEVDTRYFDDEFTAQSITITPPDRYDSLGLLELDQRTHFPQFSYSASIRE

**Q.** For `CCN1C(=O)COc2nc(-c3ccc([C@]4(N)C[C@@H](O)C4)cc3)c(-c3ccccc3)cc21` [ALM301, 6-(4-((1S,3S)-1-amino-3-hydroxycyclobutyl)phenyl)-1-ethyl-7-phenyl-1H-pyrido[2,3-b][1,4]oxazin-2(3H)-one], which microsomal CLint at 1 µM [1] is on record?
**A.** 3 µL/min/mg

**Q.** What about the “inhibition of AKT phosphorylation (western blot)” value [2] of the same compound?
**A.** sustained up to 48 h

**Q.** And the inhibition at 10 µM [3]?
**A.** 89%

**Q.** And the IC50 [4]?
**A.** 100 nM

**Q.** And the IC50 ([5]; 10-point titration curve)?
**A.** > 10000 nM

**Q.** And the inhibition at 10 µM ([5]; read-out: % inhibition @ 10 µM, PDK1, 10 µM fixed concentration)?
**A.** 77%

**Q.** And the IC50 ([6]; ATP concentration 150 µM, read-out: IC50 vs. AKT1)?
**A.** 121 nM

**Q.** And the IC50 ([6]; ATP concentration 500 µM, read-out: IC50 vs. AKT1)?
**A.** 157 nM

**Q.** And the IC50 ([6]; ATP concentration 1000 µM, read-out: IC50 vs. AKT1)?
**A.** 110 nM

**Q.** What about the IC50 ([6]; full length AKT1, read-out: IC50 full length AKT1) of the same compound?
**A.** 125 nM

**Q.** And the IC50 ([6]; read-out: AKT IC50, AKT1)?
**A.** 130 nM

**Q.** And the “inhibition of truncated AKT3 lacking PH domain” value [7]?
**A.** not inhibited

**Q.** And the “cell proliferation by live cell imaging” value [8]?
**A.** completely abrogated cell proliferation

**Q.** And the IC50 [9]?
**A.** 2250 nM

**Q.** What about the IC50 [10] of the same compound?
**A.** 160 nM

**Q.** And the microsomal CLint at 1 µM [11]?
**A.** 6 µL/min/mg

**Q.** And the “inhibition of truncated AKT1 lacking PH domain” value [12]?
**A.** not inhibited

**Q.** What about the EC50 [13] of the same compound?
**A.** 470 nM

Reference: publication PMC9489722, “Identification and development of a subtype-selective allosteric AKT inhibitor suitable for clinical development” (Scientific Reports, 2022)
